Measured values reported in the NIST ThermoML archive (doi:10.1016/j.jct.2017.03.026).
Numbers after ± are expanded uncertainties.

Conditions: 101.33 kPa, Crystal, Small (less than 1 g) adiabatic calorimetry

O.O.O.O.O.O=S(=O)([O-])[O-].[Cu+2] [copper(II) sulfate pentahydrate]
Conditions | molar entropy [J/K/mol]
5 K | 1.205 ± 0.092
10 K | 1.688 ± 0.11
15 K | 2.669 ± 0.12
20 K | 4.429 ± 0.15
25 K | 6.984 ± 0.19
30 K | 10.25 ± 0.25
35 K | 14.13 ± 0.29
40 K | 18.55 ± 0.33
45 K | 23.35 ± 0.38
50 K | 28.39 ± 0.42
55 K | 33.74 ± 0.46
60 K | 39.25 ± 0.5
65 K | 44.9 ± 0.54
70 K | 50.64 ± 0.59
75 K | 56.43 ± 0.63
80 K | 62.26 ± 0.67
85 K | 68.09 ± 0.71
90 K | 73.92 ± 0.78
95 K | 79.73 ± 0.8
100 K | 85.52 ± 0.84
110 K | 97.04 ± 0.91
120 K | 108.5 ± 1
130 K | 119.8 ± 1
140 K | 131 ± 1.1
150 K | 142.1 ± 1.1
160 K | 153.1 ± 1.2
170 K | 164 ± 1.3
180 K | 174.7 ± 1.3
190 K | 185.4 ± 1.3
200 K | 196 ± 1.4
210 K | 206.5 ± 1.5
220 K | 216.9 ± 1.5
230 K | 227.2 ± 1.6
240 K | 237.5 ± 1.6
250 K | 247.6 ± 1.6
260 K | 257.7 ± 1.7
270 K | 267.6 ± 1.7
273.15 K | 270.7 ± 1.7
280 K | 277.5 ± 1.8
290 K | 287.3 ± 1.9
298.15 K | 295.2 ± 1.9
300 K | 297 ± 1.9
310 K | 306.6 ± 1.9
320 K | 316.1 ± 2
